{"source": "patent US20230276831A1", "about": "“Food/Beverage Article” (Kikkoman Corporation, priority 2020, published 2023)", "key": {"[1]": {"system": "Lactobacillus rennini (DSM 20253)", "experiment": "Antimicrobial action of licoricidin in liquid dressing, lightly-pickled vegetables and cooking vinegar (Test Example 9)", "type": "cell-based", "details": "conclusion of Test Example 9", "description": "Specifically, Koikuchi soy sauce (produced by Kikkoman Corporation), table vinegar, mirin, granulated sugar, kelp stock, and water were blended in amounts shown in the following Table 24, and the resulting mixture was heated to produce liquid dressing. The salt concentration of the obtained liquid dressing was 2.6% (w/v), the alcohol concentration was 0.8% (v/v), the pH was 4.2.\nSpecifically, Usukuchi soy sauce (produced by Kikkoman Corporation), table vinegar, corn syrup, isomerized sugar, salt, granulated sugar, sodium glutamate (MSG), lemon fruit juice, kelp stock, and water were blended in amounts shown in the following Table 25, and the mixture was heated to produce seasoning liquid for lightly-pickled vegetables. Chinese cabbages were fully soaked therein to produce lightly-pickled vegetables. […]\nLicoricidin (produced by ChemFaces) was added to each of the above-mentioned produced liquid dressing, lightly-pickled vegetables, and cooking vinegar to concentrations of 1 ppm, 5 ppm, 10 ppm, 25 ppm, and 50 ppm. […] After the culture, the number of lactic acid bacteria was measured using the GAM agar medium “Nissui”. The liquid dressing, the lightly-pickled vegetables, and the cooking vinegar to which licoricidin was not added were used as respective control groups, and the antimicrobial activity was evaluated in comparison with the number of lactic acid bacteria in the control group. […]"}, "[2]": {"system": "Lactobacillus acidipiscis NBRC 102164", "experiment": "Antimicrobial action of licoricidin in liquid seasoning (1), lactic acid bacteria D", "type": "cell-based", "set-up": "key: A: The bacterial count decreases to less than 10% of the bacterial count of the control group.; B: The bacterial count decreases to 10% or more and less than 50% of the bacterial count of the control group.; C: The bacterial count decreases to 50% or more and less than 100% of the bacterial count of control group.; D: The bacterial count is the same as the bacterial count of the control group", "description": "Commercially available whole soybean soy sauce (produced by Kikkoman Corporation) was electrodialyzed and then concentrated under reduced pressure to obtain soy sauce at a salt concentration of 0% (w/v) and an alcohol concentration of 0% (v/v). Then, salt and/or alcohol was added to the above-mentioned obtained soy sauce, and the mixture was heat-treated to produce soy sauces at salt concentrations and alcohol concentrations shown in the following Table 5. The pHs of the soy sauces were 4.9 to 5.0.\nSpecifically, components contained in dried bonito was extracted with alcohol and water; sugar, salt, and seasonings were blended with the obtained extract; and the resulting mixture was heated to produce bonito stock. The salt concentration of the obtained bonito stock was 0.2% (w/v), the alcohol concentration was 0.15% (v/v), and the pH was 6.1.\nSpecifically, Koikuchi soy sauce (produced by Kikkoman Corporation), granulated sugar, potato starch, and water were blended in amounts shown in following Table 7, and the resulting mixture was heated to produce sauce. The salt concentration of the obtained sauce was 5.3% (w/v), the alcohol concentration was 0.8% (v/v), and the pH was 5.0.\nSpecifically, the components contained in dried bonito was extracted with water; Koikuchi soy sauce (produced by Kikkoman Corporation), sugar, and salt were blended with the obtained extract; and the resulting mixture was heated to produce Japanese seasoned soup stock. The salt concentration of the obtained Japanese seasoned soup stock was 3% (w/v), the alcohol concentration was 0.4% (v/v), and the pH was 5.5.\nLicoricidin (produced by ChemFaces) was added to each of the liquid seasonings produced in the above-mentioned (1) to concentrations of 1 ppm, 5 ppm, 10 ppm, 25 ppm, and 50 ppm. Lactic acid bacteria described in the following Table 9 were then added to 10^6 to 10^7 cells/mL and cultured at 30° C. for 7 days. After the culture, the number of lactic acid bacteria was measured using the GAM agar medium “Nissui”. Liquid seasoning to which licoricidin was not added was used as a control group, and the antimicrobial activity was evaluated in comparison with the number of lactic acid bacteria in the control group. The evaluation was performed using the criterion shown below.\n• A: The bacterial count decreases to less than 10% of the bacterial count of the control group. • B: The bacterial count decreases to 10% or more and less than 50% of the bacterial count of the control group. • C: The bacterial count decreases to 50% or more and less than 100% of the bacterial count of control group. • D: The bacterial count is the same as the bacterial count of the control group."}}}
{"smiles": "COc1c(CC=C(C)C)c(O)cc2c1C[C@H](c1ccc(O)c(CC=C(C)C)c1O)CO2", "note": "[Licoricidin, 4-[(R)-7-hydroxy-5-methoxy-6-(3-methyl-2-butenyl)chroman-3-yl]-2-(3-methyl-2-butenyl)-1,3-benzenediol]", "values": [{"measurement": "Antimicrobial activity to lactic acid bacteria in the various liquid seasonings and the food", "setting": "[1]", "value": "exhibited antimicrobial activity"}, {"measurement": "Antimicrobial activity", "setting": "[2]; Bonito stock (salt 0.2% (w/v), alcohol 0.15% (v/v), pH 6.1), licoricidin 1 ppm", "value": "A (The bacterial count decreases to less than 10% of the bacterial count of the control group.)"}, {"measurement": "Antimicrobial activity", "setting": "[2]; Bonito stock (salt 0.2% (w/v), alcohol 0.15% (v/v), pH 6.1), licoricidin 5 ppm", "value": "A (The bacterial count decreases to less than 10% of the bacterial count of the control group.)"}, {"measurement": "Antimicrobial activity", "setting": "[2]; Bonito stock (salt 0.2% (w/v), alcohol 0.15% (v/v), pH 6.1), licoricidin 10 ppm", "value": "A (The bacterial count decreases to less than 10% of the bacterial count of the control group.)"}, {"measurement": "Antimicrobial activity", "setting": "[2]; Bonito stock (salt 0.2% (w/v), alcohol 0.15% (v/v), pH 6.1), licoricidin 25 ppm", "value": "A (The bacterial count decreases to less than 10% of the bacterial count of the control group.)"}, {"measurement": "Antimicrobial activity", "setting": "[2]; Bonito stock (salt 0.2% (w/v), alcohol 0.15% (v/v), pH 6.1), licoricidin 50 ppm", "value": "A (The bacterial count decreases to less than 10% of the bacterial count of the control group.)"}, {"measurement": "Antimicrobial activity", "setting": "[2]; Japanese seasoned soup stock (salt 3% (w/v), alcohol 0.4% (v/v), pH 5.5), licoricidin 1 ppm", "value": "D"}, {"measurement": "Antimicrobial activity", "setting": "[2]; Japanese seasoned soup stock (salt 3% (w/v), alcohol 0.4% (v/v), pH 5.5), licoricidin 5 ppm", "value": "A (The bacterial count decreases to less than 10% of the bacterial count of the control group.)"}, {"measurement": "Antimicrobial activity", "setting": "[2]; Japanese seasoned soup stock (salt 3% (w/v), alcohol 0.4% (v/v), pH 5.5), licoricidin 10 ppm", "value": "A (The bacterial count decreases to less than 10% of the bacterial count of the control group.)"}, {"measurement": "Antimicrobial activity", "setting": "[2]; Japanese seasoned soup stock (salt 3% (w/v), alcohol 0.4% (v/v), pH 5.5), licoricidin 25 ppm", "value": "A (The bacterial count decreases to less than 10% of the bacterial count of the control group.)"}, {"measurement": "Antimicrobial activity", "setting": "[2]; Japanese seasoned soup stock (salt 3% (w/v), alcohol 0.4% (v/v), pH 5.5), licoricidin 50 ppm", "value": "A (The bacterial count decreases to less than 10% of the bacterial count of the control group.)"}, {"measurement": "Antimicrobial activity", "setting": "[2]; Sauce (salt 5.3% (w/v), alcohol 0.8% (v/v), pH 5.0), licoricidin 1 ppm", "value": "C (The bacterial count decreases to 50% or more and less than 100% of the bacterial count of control group.)"}, {"measurement": "Antimicrobial activity", "setting": "[2]; Sauce (salt 5.3% (w/v), alcohol 0.8% (v/v), pH 5.0), licoricidin 5 ppm", "value": "C (The bacterial count decreases to 50% or more and less than 100% of the bacterial count of control group.)"}, {"measurement": "Antimicrobial activity", "setting": "[2]; Sauce (salt 5.3% (w/v), alcohol 0.8% (v/v), pH 5.0), licoricidin 10 ppm", "value": "A (The bacterial count decreases to less than 10% of the bacterial count of the control group.)"}, {"measurement": "Antimicrobial activity", "setting": "[2]; Sauce (salt 5.3% (w/v), alcohol 0.8% (v/v), pH 5.0), licoricidin 25 ppm", "value": "A (The bacterial count decreases to less than 10% of the bacterial count of the control group.)"}, {"measurement": "Antimicrobial activity", "setting": "[2]; Sauce (salt 5.3% (w/v), alcohol 0.8% (v/v), pH 5.0), licoricidin 50 ppm", "value": "A (The bacterial count decreases to less than 10% of the bacterial count of the control group.)"}, {"measurement": "Antimicrobial activity", "setting": "[2]; Soy sauce, salt 0% (w/v), alcohol 0% (v/v), licoricidin 1 ppm", "value": "C (The bacterial count decreases to 50% or more and less than 100% of the bacterial count of control group.)"}, {"measurement": "Antimicrobial activity", "setting": "[2]; Soy sauce, salt 0% (w/v), alcohol 0% (v/v), licoricidin 5 ppm", "value": "C (The bacterial count decreases to 50% or more and less than 100% of the bacterial count of control group.)"}, {"measurement": "Antimicrobial activity", "setting": "[2]; Soy sauce, salt 0% (w/v), alcohol 0% (v/v), licoricidin 10 ppm", "value": "B (The bacterial count decreases to 10% or more and less than 50% of the bacterial count of the control group.)"}, {"measurement": "Antimicrobial activity", "setting": "[2]; Soy sauce, salt 0% (w/v), alcohol 0% (v/v), licoricidin 25 ppm", "value": "A (The bacterial count decreases to less than 10% of the bacterial count of the control group.)"}, {"measurement": "Antimicrobial activity", "setting": "[2]; Soy sauce, salt 0% (w/v), alcohol 0% (v/v), licoricidin 50 ppm", "value": "A (The bacterial count decreases to less than 10% of the bacterial count of the control group.)"}, {"measurement": "Antimicrobial activity", "setting": "[2]; Soy sauce, salt 4% (w/v), alcohol 0% (v/v), licoricidin 1 ppm", "value": "D"}, {"measurement": "Antimicrobial activity", "setting": "[2]; Soy sauce, salt 4% (w/v), alcohol 0% (v/v), licoricidin 5 ppm", "value": "A (The bacterial count decreases to less than 10% of the bacterial count of the control group.)"}, {"measurement": "Antimicrobial activity", "setting": "[2]; Soy sauce, salt 4% (w/v), alcohol 0% (v/v), licoricidin 10 ppm", "value": "A (The bacterial count decreases to less than 10% of the bacterial count of the control group.)"}, {"measurement": "Antimicrobial activity", "setting": "[2]; Soy sauce, salt 4% (w/v), alcohol 0% (v/v), licoricidin 25 ppm", "value": "A (The bacterial count decreases to less than 10% of the bacterial count of the control group.)"}, {"measurement": "Antimicrobial activity", "setting": "[2]; Soy sauce, salt 4% (w/v), alcohol 0% (v/v), licoricidin 50 ppm", "value": "A (The bacterial count decreases to less than 10% of the bacterial count of the control group.)"}, {"measurement": "Antimicrobial activity", "setting": "[2]; Soy sauce, salt 8% (w/v), alcohol 0% (v/v), licoricidin 1 ppm", "value": "C (The bacterial count decreases to 50% or more and less than 100% of the bacterial count of control group.)"}, {"measurement": "Antimicrobial activity", "setting": "[2]; Soy sauce, salt 8% (w/v), alcohol 0% (v/v), licoricidin 5 ppm", "value": "A (The bacterial count decreases to less than 10% of the bacterial count of the control group.)"}, {"measurement": "Antimicrobial activity", "setting": "[2]; Soy sauce, salt 8% (w/v), alcohol 0% (v/v), licoricidin 10 ppm", "value": "A (The bacterial count decreases to less than 10% of the bacterial count of the control group.)"}, {"measurement": "Antimicrobial activity", "setting": "[2]; Soy sauce, salt 8% (w/v), alcohol 0% (v/v), licoricidin 25 ppm", "value": "A (The bacterial count decreases to less than 10% of the bacterial count of the control group.)"}, {"measurement": "Antimicrobial activity", "setting": "[2]; Soy sauce, salt 8% (w/v), alcohol 0% (v/v), licoricidin 50 ppm", "value": "A (The bacterial count decreases to less than 10% of the bacterial count of the control group.)"}, {"measurement": "Antimicrobial activity", "setting": "[2]; Soy sauce, salt 12% (w/v), alcohol 0% (v/v), licoricidin 1 ppm", "value": "D"}, {"measurement": "Antimicrobial activity", "setting": "[2]; Soy sauce, salt 12% (w/v), alcohol 0% (v/v), licoricidin 5 ppm", "value": "A (The bacterial count decreases to less than 10% of the bacterial count of the control group.)"}, {"measurement": "Antimicrobial activity", "setting": "[2]; Soy sauce, salt 12% (w/v), alcohol 0% (v/v), licoricidin 10 ppm", "value": "A (The bacterial count decreases to less than 10% of the bacterial count of the control group.)"}, {"measurement": "Antimicrobial activity", "setting": "[2]; Soy sauce, salt 12% (w/v), alcohol 0% (v/v), licoricidin 25 ppm", "value": "A (The bacterial count decreases to less than 10% of the bacterial count of the control group.)"}, {"measurement": "Antimicrobial activity", "setting": "[2]; Soy sauce, salt 12% (w/v), alcohol 0% (v/v), licoricidin 50 ppm", "value": "A (The bacterial count decreases to less than 10% of the bacterial count of the control group.)"}]}
